For six compounds, Activity results are on record in ChEMBL document CHEMBL1140417, “Total and semisynthesis and in vitro studies of both enantiomers of 20-fluorocamptothecin” (Bioorg Med Chem Lett, 2005).

Calls of active or inactive are those of the source. The rule behind the calls is not given here.

The target in this test is T1, DNA topoisomerase 1 (Homo sapiens) (UniProt P11387).
T1 sequence (whole entry): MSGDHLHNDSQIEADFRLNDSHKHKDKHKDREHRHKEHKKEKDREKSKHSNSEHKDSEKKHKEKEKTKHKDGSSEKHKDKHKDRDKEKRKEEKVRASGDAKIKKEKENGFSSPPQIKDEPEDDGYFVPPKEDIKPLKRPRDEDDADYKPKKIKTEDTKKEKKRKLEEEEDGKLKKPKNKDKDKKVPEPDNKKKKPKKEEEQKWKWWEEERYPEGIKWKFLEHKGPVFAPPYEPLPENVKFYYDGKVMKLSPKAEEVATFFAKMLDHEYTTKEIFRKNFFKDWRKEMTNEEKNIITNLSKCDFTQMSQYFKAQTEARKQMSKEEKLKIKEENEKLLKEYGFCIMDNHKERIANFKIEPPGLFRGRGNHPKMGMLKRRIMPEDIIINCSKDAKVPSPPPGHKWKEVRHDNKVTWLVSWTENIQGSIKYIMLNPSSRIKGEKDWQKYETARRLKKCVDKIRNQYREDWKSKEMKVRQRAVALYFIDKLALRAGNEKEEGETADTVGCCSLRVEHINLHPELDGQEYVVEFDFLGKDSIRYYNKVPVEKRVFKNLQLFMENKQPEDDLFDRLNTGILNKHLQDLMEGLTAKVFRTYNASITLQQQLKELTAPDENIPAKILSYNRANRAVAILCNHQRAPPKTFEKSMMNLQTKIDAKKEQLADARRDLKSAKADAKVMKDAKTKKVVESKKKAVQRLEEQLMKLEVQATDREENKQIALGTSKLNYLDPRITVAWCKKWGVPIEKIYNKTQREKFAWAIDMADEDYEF
Put plainly: Inhibition of topoisomerase-1 at 100 uM.
As for `CC[C@]1(F)C(=O)OCc2c1cc1n(c2=O)Cc2cc3c4c(ccc3nc2-1)OCO4`, the result was inactive.

Take `CC[C@]1(F)C(=O)OCc2c1cc1n(c2=O)Cc2cc3cc(F)ccc3nc2-1`: the outcome was inactive.

`CC[C@@]1(F)C(=O)OCc2c1cc1n(c2=O)Cc2cc3ccccc3nc2-1`: the result was Active.

Turning to `CC[C@]1(F)C(=O)OCc2c1cc1n(c2=O)Cc2cc3cc4c(cc3nc2-1)OCO4`, the outcome was inactive.

As for `CC[C@]1(F)C(=O)OCc2c1cc1n(c2=O)Cc2cc3ccccc3nc2-1`, the outcome was inactive.

On to `CC[C@]1(F)C(=O)OCc2c1cc1n(c2=O)Cc2c-1nc1ccc(O)cc1c2[Si](C)(C)C(C)(C)C`, for which the outcome was inactive.
